Experimental data as given in patent US20180057505A1, “BICYCLIC HETEROARYL COMPOUNDS USEFUL AS INHIBITORS OF THE PAR-2 SIGNALING PATHWAY” (VERTEX PHARMACEUTICALS INCORPORATED, priority 2015, published 2018).

Assays:
Format in all cases: cell-based
PAR2 (HT-29 cells) [1] = target: T1, PAR2 (HT-29 cells) (Homo sapiens, UniProt P55085); assay: Ca FLIPR TETRA assay, ANTAGONIST mode, activator 8 μM SLIGKV; conditions: HT-29 cells, activator 8 μM SLIGKV; maximal antagonist concentration per Method (A: 0.1, 1 or 2 μM; B: 50 μM)
T1 construct: host or cells: HT-29
T1 sequence (P55085 26-397): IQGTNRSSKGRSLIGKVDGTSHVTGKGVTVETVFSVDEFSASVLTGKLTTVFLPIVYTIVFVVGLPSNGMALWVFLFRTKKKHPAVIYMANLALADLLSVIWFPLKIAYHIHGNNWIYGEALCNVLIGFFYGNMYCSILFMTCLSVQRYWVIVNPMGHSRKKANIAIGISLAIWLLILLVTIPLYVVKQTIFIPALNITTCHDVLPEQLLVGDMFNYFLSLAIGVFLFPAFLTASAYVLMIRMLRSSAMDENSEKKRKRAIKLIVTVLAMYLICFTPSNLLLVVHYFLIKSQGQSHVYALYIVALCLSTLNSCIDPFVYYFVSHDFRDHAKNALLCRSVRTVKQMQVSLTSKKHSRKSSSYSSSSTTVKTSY
Summary of the method: (§1)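 HT-29 cells in 1% FBS/McCoy's overnight, loaded with FLIPR Calcium 5 dye (45 min 37 °C, 15 min r.t.); compounds added and read for intrinsic Ca2+ activation, then after 30 min r.t. stimulated with fixed activator: 8 μM SLIGKV, 0.6 μM UTP, 1 U/mL thrombin or 3.1 U/mL trypsin (final).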

PAR2 (HT-29 cells) [2] = target: T1, PAR2 (HT-29 cells); assay: Ca FLIPR TETRA assay, ANTAGONIST mode, activator 3.1 U/mL trypsin; conditions: HT-29 cells, activator 3.1 U/mL trypsin; maximal antagonist concentration per Method (A: 0.1, 1 or 2 μM; B: 50 μM)
Summary of the method: as §1

[3] = test system: Thrombin-stimulated Ca2+ response in HT-29 cells; assay: Ca FLIPR TETRA assay, ANTAGONIST mode, activator 1 U/mL Thrombin; conditions: HT-29 cells, activator 1 U/mL Thrombin
Summary of the method: as §1

[4] = test system: UTP-stimulated Ca2+ response in HT-29 cells; assay: Ca FLIPR TETRA assay, ANTAGONIST mode, activator 0.6 μM UTP; conditions: HT-29 cells, activator 0.6 μM UTP
Summary of the method: as §1

Q: Which IC50 (PAR2 (HT-29 cells) [1]) does the source give for CC(C)(C)c1cc(-c2ccc(F)cc2)nc2cc(C(=O)N3CCN(C(=O)CCS(C)(=O)=O)CC3(C)C)oc12 [Example I-213] here?
A: 8 nM

Q: And the IC50 (PAR2 (HT-29 cells) [2])?
A: 53 nM

Q: What about the IC50 ([3]; Homo sapiens) of the same compound?
A: > 2000 nM

Q: What about the IC50 ([4]; Homo sapiens) of the same compound?
A: > 2000 nM

Q: How did the IC50 (PAR2 (HT-29 cells) [1]) turn out when CC(C)(C)c1cc(C2CCCCCC2)nc2cc(C(=O)N3CCNC(=O)C3(C)C)oc12 [Example I-214] was run?
A: 27 nM

Q: And the IC50 (PAR2 (HT-29 cells) [2])?
A: 26 nM

Q: What about the IC50 ([3]; Homo sapiens) of the same compound?
A: > 1000 nM

Q: What about the IC50 ([4]; Homo sapiens) of the same compound?
A: > 1000 nM

Q: Which results are given for CC(C)(C)c1cc(C2CCCC2)nc2cc(C(=O)N3CCNC(=O)C3(C)C)oc12 [Example I-215]?
A: IC50 (PAR2 (HT-29 cells) [1]): 96 nM; IC50 (PAR2 (HT-29 cells) [2]): 300 nM; IC50 ([3]; Homo sapiens): > 1000 nM; IC50 ([4]; Homo sapiens): > 1000 nM

Q: Which results are given for CC(C)(C)c1cc(C2CCC(F)(F)CC2)nc2cc(C(=O)N3CCNC(=O)C3(C)C)oc12 [Example I-216]?
A: IC50 (PAR2 (HT-29 cells) [1]): 68 nM; IC50 (PAR2 (HT-29 cells) [2]): 240 nM; IC50 ([3]; Homo sapiens): > 1000 nM; IC50 ([4]; Homo sapiens): > 1000 nM

Q: What does the source list for CC1(C)CCC(c2cc(C(C)(C)C)c3oc(C(=O)N4CCNC(=O)C4(C)C)cc3n2)CC1 [Example I-217, 4-[7-tert-butyl-5-(4,4-dimethylcyclohexyl)furo[3,2-b]pyridine-2-carbonyl]-3,3-dimethyl-piperazin-2-one]?
A: IC50 (PAR2 (HT-29 cells) [1]): 13 nM; IC50 (PAR2 (HT-29 cells) [2]): 22 nM; IC50 ([3]; Homo sapiens): > 2000 nM; IC50 ([4]; Homo sapiens): > 2000 nM

Q: What does the source list for CC(C)(C)c1cc(C2CCC(Cl)(Cl)CC2)nc2cc(C(=O)N3CCNC(=O)C3(C)C)oc12 [Example I-218]?
A: IC50 (PAR2 (HT-29 cells) [1]): 36 nM; IC50 (PAR2 (HT-29 cells) [2]): 44 nM; IC50 ([3]; Homo sapiens): > 2000 nM; IC50 ([4]; Homo sapiens): > 2000 nM

Q: Which results are given for CNS(=O)(=O)CC(=O)N1CCN(C(=O)c2cc3nc(C4CCC(F)(F)CC4)cc(C(C)(C)C)c3o2)C(C)(C)C1=O [Example I-219]?
A: IC50 (PAR2 (HT-29 cells) [1]): 39 nM; IC50 (PAR2 (HT-29 cells) [2]): 50 nM; IC50 [3]: > 2000 nM; IC50 [4]: > 2000 nM

Q: How did the IC50 (PAR2 (HT-29 cells) [1]) turn out when CC(C)(C)c1cc(C2CCC(F)(F)CC2)nc2cc(C(=O)N3CCN(C(=O)[C@H]4CC[C@@](C)(C(=O)O)CC4)C(=O)C3(C)C)oc12 [Example I-220] was run?
A: 6.7 nM

Q: And the IC50 (PAR2 (HT-29 cells) [2])?
A: 13 nM

Q: And the IC50 [3]?
A: > 2000 nM

Q: What about the IC50 [4] of the same compound?
A: > 2000 nM

Q: For Cc1nc(C(=O)N2CCN(C(=O)c3cc4nc(C5CCC(F)(F)CC5)cc(C(C)(C)C)c4o3)C(C)(C)C2=O)n[nH]1 [Example I-221], which IC50 (PAR2 (HT-29 cells) [1]) is on record?
A: 32 nM

Q: And the IC50 (PAR2 (HT-29 cells) [2])?
A: 58 nM

Q: And the IC50 [3]?
A: > 2000 nM

Q: What about the IC50 [4] of the same compound?
A: > 2000 nM

Q: With CC(C)(C)c1cc(C2CCC(F)(F)CC2)nc2cc(C(=O)N3CCN(C(=O)CNS(C)(=O)=O)C(=O)C3(C)C)oc12 [Example I-222] as the compound, how does the IC50 (PAR2 (HT-29 cells) [1]) read?
A: 275 nM

Q: And the IC50 (PAR2 (HT-29 cells) [2])?
A: 730 nM

Q: And the IC50 [3]?
A: > 2000 nM

Q: And the IC50 [4]?
A: > 2000 nM

Q: Cc1cc(C(=O)N2CCN(C(=O)c3cc4nc(C5CCC(F)(F)CC5)cc(C(C)(C)C)c4o3)C(C)(C)C2=O)[nH]n1 [Example I-223] was tested. Which IC50 (PAR2 (HT-29 cells) [1]) did it give?
A: 13.8 nM

Q: And the IC50 (PAR2 (HT-29 cells) [2])?
A: 39 nM

Q: And the IC50 [3]?
A: > 2000 nM

Q: And the IC50 [4]?
A: > 2000 nM

Q: Which IC50 (PAR2 (HT-29 cells) [1]) does the source give for CC(C)(C)c1cc(C2CCC(F)(F)CC2)nc2cc(C(=O)N3CCN(C(=O)C4CC(O)(C(F)(F)F)C4)C(=O)C3(C)C)oc12 (stereo not drawn) [Example I-224] here?
A: 2.3 nM

Q: And the IC50 (PAR2 (HT-29 cells) [2])?
A: 3.3 nM

Q: What about the IC50 [3] of the same compound?
A: > 2000 nM

Q: What about the IC50 [4] of the same compound?
A: > 2000 nM

Q: Which results are given for CC(C)(C)c1cc(C2CCC(F)(F)CC2)nc2cc(C(=O)N3CCN(C(=O)[C@H]4CC[C@@H](O)CC4)CC3(C)C)oc12 [Example I-225]?
A: IC50 (PAR2 (HT-29 cells) [1]): 13 nM; IC50 (PAR2 (HT-29 cells) [2]): 24 nM; IC50 ([3]; Homo sapiens): > 2000 nM; IC50 ([4]; Homo sapiens): > 2000 nM

Q: How did the IC50 (PAR2 (HT-29 cells) [1]) turn out when CNS(=O)(=O)CCC(=O)N1CCN(C(=O)c2cc3nc(C4CCC(F)(F)CC4)cc(C(C)(C)C)c3o2)C(C)(C)C1 [Example I-226] was run?
A: 76 nM

Q: And the IC50 (PAR2 (HT-29 cells) [2])?
A: 230 nM

Q: What about the IC50 ([3]; Homo sapiens) of the same compound?
A: > 2000 nM

Q: And the IC50 ([4]; Homo sapiens)?
A: > 2000 nM

Q: What does the source list for Cc1n[nH]c(C(=O)N2CCN(C(=O)c3cc4nc(C5CCC(C)(C)CC5)cc(C(C)(C)C)c4o3)C(C)(C)C2)n1 [Example I-227]?
A: IC50 (PAR2 (HT-29 cells) [1]): 0.8 nM; IC50 (PAR2 (HT-29 cells) [2]): 1.2 nM; IC50 ([3]; Homo sapiens): > 2000 nM; IC50 ([4]; Homo sapiens): > 2000 nM

Q: Which results are given for CC1(C)CCC(c2cc(C(C)(C)C)c3oc(C(=O)N4CCN(C(=O)[C@H]5C[C@@](C)(O)C5)CC4(C)C)cc3n2)CC1 [Example I-228]?
A: IC50 (PAR2 (HT-29 cells) [1]): 0.9 nM; IC50 (PAR2 (HT-29 cells) [2]): 1.4 nM; IC50 ([3]; Homo sapiens): > 2000 nM; IC50 ([4]; Homo sapiens): > 2000 nM

Q: CC(C)(C)c1cc(C2CCC(F)(F)CC2)nc2cc(C(=O)N3CCN(C(=O)[C@H]4CC[C@@H](C(=O)O)CC4)CC3(C)C)oc12 [Example I-229] was tested. Which IC50 (PAR2 (HT-29 cells) [1]) did it give?
A: 24 nM

Q: And the IC50 (PAR2 (HT-29 cells) [2])?
A: 28 nM

Q: And the IC50 ([3]; Homo sapiens)?
A: > 2000 nM

Q: And the IC50 ([4]; Homo sapiens)?
A: > 2000 nM

Q: Which results are given for CC(C)(C)c1cc(C2CCC(F)(F)CC2)nc2cc(C(=O)N3CCN(C(=O)c4cnccn4)CC3(C)C)oc12 [Example I-230]?
A: IC50 (PAR2 (HT-29 cells) [1]): 81 nM; IC50 (PAR2 (HT-29 cells) [2]): 150 nM; IC50 ([3]; Homo sapiens): > 2000 nM; IC50 ([4]; Homo sapiens): > 2000 nM
